Results: patent publication US20230278972A1, “SUBSTITUTED HALOALKYL SULFONANILIDE HERBICIDES” (FMC Corporation, priority 2020, published 2023)

Assays:
Assay type in all cases: in vivo
corn (Zea mays) = assay: Test A postemergence, corn; conditions: Postemergence
In short: (§1)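 After sowing into a sand-amended loam, pots for the preemergence test were treated by spraying directly onto soil. In parallel, seedlings at the one- to two-leaf stage and 2 to 10 cm tall were treated postemergence with the identical surfactant-containing formulation.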

kochia (Bassia scoparia) [1] = assay: Test A preemergence, kochia; conditions: Preemergence; for Plant response rating, Kochia: 0 to 100 scale (0 no effect, 100 complete control); for Kochia plant response rating: 125 g ai/ha, visual injury on 0 to 100 scale (0 no effect, 100 complete control), approximately 10 days
In short: as §1

[2] = test system: ragweed (common ragweed, Ambrosia artemisiifolia); assay: Test A preemergence, ragweed; conditions: Preemergence; for Plant response rating, Ragweed: 0 to 100 scale (0 no effect, 100 complete control); for Ragweed plant response rating: 125 g ai/ha, visual injury on 0 to 100 scale (0 no effect, 100 complete control), approximately 10 days
In short: as §1

[3] = test system: ragweed (common ragweed, Ambrosia artemisiifolia); assay: Test A postemergence, ragweed; conditions: Postemergence
In short: as §1

[4] = test system: Ryegrass, Italian (Italian ryegrass, Lolium multiflorum); assay: Test A preemergence, Ryegrass, Italian; conditions: Preemergence; for Plant response rating, Ryegrass, Italian: 0 to 100 scale (0 no effect, 100 complete control); for Ryegrass, Italian plant response rating: 125 g ai/ha, visual injury on 0 to 100 scale (0 no effect, 100 complete control), approximately 10 days
In short: as §1

[5] = test system: pigweed (Amaranthus retroflexus); assay: Test A postemergence, pigweed; conditions: Postemergence
In short: as §1

[6] = test system: wheat (Triticum aestivum); assay: Test A postemergence, wheat; conditions: Postemergence
In short: (§2)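 Greenhouse pot test in a loam–sand blend; compounds delivered in a non-phytotoxic solvent carrying a surfactant, applied either as a directed spray to soil at seeding or over seedlings 2 to 10 cm high with one to two leaves.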

[7] = test system: blackgrass (Alopecurus myosuroides); assay: Test A postemergence, blackgrass; conditions: Postemergence
In short: as §1

kochia (Bassia scoparia) [8] = assay: Test A postemergence, kochia; conditions: Postemergence
In short: as §1

[9] = test system: barnyardgrass (Echinochloa crus-galli); assay: Test A postemergence, barnyardgrass; conditions: Postemergence
In short: as §2

[10] = test system: pigweed (Amaranthus retroflexus); assay: Test A preemergence, pigweed; conditions: for Plant response rating, Pigweed: 0 to 100 scale (0 no effect, 100 complete control); for Pigweed plant response rating: 125 g ai/ha, visual injury on 0 to 100 scale (0 no effect, 100 complete control), approximately 10 days
In short: as §2

[11] = test system: Foxtail, Giant (giant foxtail, Setaria faberi); assay: Test A preemergence, Foxtail, Giant; conditions: Preemergence; for Plant response rating, Foxtail, Giant: 0 to 100 scale (0 no effect, 100 complete control); for Foxtail, Giant plant response rating: 125 g ai/ha, visual injury on 0 to 100 scale (0 no effect, 100 complete control), approximately 10 days
In short: as §1

[12] = test system: Foxtail, Giant (giant foxtail, Setaria faberi); assay: Test A postemergence, Foxtail, Giant; conditions: Postemergence
In short: as §1

[13] = test system: Ryegrass, Italian (Italian ryegrass, Lolium multiflorum); assay: Test A postemergence, Ryegrass, Italian; conditions: Postemergence
In short: as §1

[14] = test system: galium (catchweed bedstraw, Galium aparine); assay: Test A postemergence, galium; conditions: Postemergence
In short: as §2

[15] = test system: barnyardgrass (Echinochloa crus-galli); assay: Test A preemergence, barnyardgrass; conditions: Preemergence; for Plant response rating, Barnyardgrass: 0 to 100 scale (0 no effect, 100 complete control); for Barnyardgrass plant response rating: 125 g ai/ha, visual injury on 0 to 100 scale (0 no effect, 100 complete control), approximately 10 days
In short: as §1

[16] = 31 g ai/ha, visual injury on 0 to 100 scale (0 no effect, 100 complete control), approx. 10 days
[17] = 125 g ai/ha, 0 to 100 scale (0 no effect, 100 complete control)
[18] = 31 g ai/ha, visual injury, approx. 10 days
[19] = 125 g ai/ha, visual injury approx. 10 days, 0 to 100 scale (0 no effect, 100 complete control)
[20] = 500 g ai/ha, visual injury, 0 to 100 scale (0 no effect, 100 complete control), approx. 10 days
[21] = 500 g ai/ha, visual injury vs untreated controls after approx. 10 days, 0 to 100 scale (0 no effect, 100 complete control)

SMILES: Cc1cc(C)c(N(COC(=O)CC(C)C)S(=O)(=O)C(F)(F)F)cc1C1=NOC2(CCCC2)C1 [Compound 152]
- Plant response rating, Corn (corn (Zea mays); [16]): 10
- Plant response rating, Corn (corn (Zea mays); [17]): 0
- Plant response rating, Kochia (kochia (Bassia scoparia) [1]; [18]): 0
- Kochia plant response rating (kochia (Bassia scoparia) [1]): 0
- Plant response rating, Ragweed [2, 18]: 0
- Ragweed plant response rating [2]: 30
- Plant response rating, Ragweed [3, 16]: 0
- Plant response rating, Ragweed [3, 17]: 40
- Plant response rating, Ryegrass, Italian [4, 18]: 0
- Ryegrass, Italian plant response rating [4]: 40
- Plant response rating, Pigweed [5, 16]: 30
- Plant response rating, Pigweed [5, 17]: 60
- Plant response rating, Wheat [6, 16]: 40
- Plant response rating, Wheat [6, 17]: 30
- Plant response rating, Blackgrass [7, 16]: 0
- Plant response rating, Blackgrass [7, 17]: 0
- Plant response rating, Kochia (kochia (Bassia scoparia) [8]; [16]): 10
- Plant response rating, Kochia (kochia (Bassia scoparia) [8]; [17]): 10
- Plant response rating, Barnyardgrass [9, 16]: 0
- Plant response rating, Barnyardgrass [9, 17]: 10
- Plant response rating, Pigweed [10, 18]: 30
- Pigweed plant response rating [10]: 100
- Plant response rating, Foxtail, Giant [11, 18]: 40
- Foxtail, Giant plant response rating [11]: 80
- Plant response rating, Foxtail, Giant [12, 16]: 10
- Plant response rating, Foxtail, Giant [12, 17]: 10
- Plant response rating, Ryegrass, Italian [13, 16]: 0
- Plant response rating, Ryegrass, Italian [13, 17]: 0
- Plant response rating, Galium [14, 16]: 20
- Plant response rating, Galium [14, 17]: 60
- Plant response rating, Barnyardgrass [15, 18]: 0
- Barnyardgrass plant response rating [15]: 70

SMILES: Cc1cc(Cl)c(NS(=O)(=O)C(F)(F)F)cc1C(=O)N1CCSCC1 [Compound 26]
- Plant response rating, Corn (corn (Zea mays); [19]): 0
- Plant response rating, Corn (corn (Zea mays); [20]): 20
- Kochia plant response rating (kochia (Bassia scoparia) [1]): 0
- Plant response rating, Kochia (kochia (Bassia scoparia) [1]; 500 g ai/ha): 50
- Ragweed plant response rating [2]: 20
- Plant response rating, Ragweed ([2]; 500 g ai/ha): 50
- Plant response rating, Ragweed [3, 19]: 50
- Plant response rating, Ragweed [3, 20]: 100
- Ryegrass, Italian plant response rating [4]: 80
- Plant response rating, Ryegrass, Italian ([4]; 500 g ai/ha): 100
- Plant response rating, Pigweed [5, 19]: 50
- Plant response rating, Pigweed [5, 20]: 90
- Plant response rating, Wheat [6, 19]: 40
- Plant response rating, Wheat [6, 20]: 60
- Plant response rating, Blackgrass [7, 19]: 0
- Plant response rating, Blackgrass [7, 20]: 30
- Plant response rating, Kochia (kochia (Bassia scoparia) [8]; [19]): 0
- Plant response rating, Kochia (kochia (Bassia scoparia) [8]; [20]): 10
- Plant response rating, Barnyardgrass [9, 19]: 20
- Plant response rating, Barnyardgrass [9, 20]: 70
- Pigweed plant response rating [10]: 80
- Plant response rating, Pigweed ([10]; 500 g ai/ha): 90
- Foxtail, Giant plant response rating [11]: 100
- Plant response rating, Foxtail, Giant ([11]; 500 g ai/ha): 100
- Plant response rating, Foxtail, Giant [12, 19]: 10
- Plant response rating, Foxtail, Giant [12, 20]: 40
- Plant response rating, Ryegrass, Italian [13, 19]: 0
- Plant response rating, Ryegrass, Italian [13, 20]: 0
- Plant response rating, Galium [14, 19]: 70
- Plant response rating, Galium [14, 20]: 90
- Barnyardgrass plant response rating [15]: 70
- Plant response rating, Barnyardgrass ([15]; 500 g ai/ha): 100

SMILES: Cc1cc(C)c(C(=O)N2CC(C)OC(C)C2)cc1NS(=O)(=O)C(F)(F)F (centres unmarked) [Compound 9]
- Plant response rating, Corn (corn (Zea mays); [19]): 0
- Plant response rating, Corn (corn (Zea mays); [20]): 70
- Kochia plant response rating (kochia (Bassia scoparia) [1]): 70
- Plant response rating, Kochia (kochia (Bassia scoparia) [1]; 500 g ai/ha): 90
- Ragweed plant response rating [2]: 90
- Plant response rating, Ragweed ([2]; 500 g ai/ha): 90
- Plant response rating, Ragweed [3, 19]: 70
- Plant response rating, Ragweed [3, 20]: 80
- Ryegrass, Italian plant response rating [4]: 90
- Plant response rating, Ryegrass, Italian ([4]; 500 g ai/ha): 100
- Plant response rating, Pigweed [5, 19]: 60
- Plant response rating, Pigweed [5, 20]: 80
- Plant response rating, Wheat [6, 19]: 60
- Plant response rating, Wheat [6, 20]: 70
- Plant response rating, Blackgrass [7, 19]: 30
- Plant response rating, Blackgrass [7, 20]: 30
- Plant response rating, Kochia (kochia (Bassia scoparia) [8]; [19]): 10
- Plant response rating, Kochia (kochia (Bassia scoparia) [8]; [20]): 30
- Plant response rating, Barnyardgrass [9, 19]: 80
- Plant response rating, Barnyardgrass [9, 20]: 90
- Pigweed plant response rating [10]: 30
- Plant response rating, Pigweed ([10]; 500 g ai/ha): 80
- Foxtail, Giant plant response rating [11]: 80
- Plant response rating, Foxtail, Giant ([11]; 500 g ai/ha): 100
- Plant response rating, Foxtail, Giant [12, 19]: 20
- Plant response rating, Foxtail, Giant [12, 20]: 90
- Plant response rating, Ryegrass, Italian [13, 19]: 70
- Plant response rating, Ryegrass, Italian [13, 20]: 80
- Plant response rating, Galium [14, 19]: 80
- Plant response rating, Galium [14, 20]: 90
- Barnyardgrass plant response rating [15]: 100
- Plant response rating, Barnyardgrass ([15]; 500 g ai/ha): 100

SMILES: Cc1cc(C)c(N(S(=O)(=O)C(F)(F)F)S(=O)(=O)C(F)(F)F)cc1-c1cc(C(C)C)nn(C)c1=O [Compound 47]
- Plant response rating, Corn (corn (Zea mays); [19]): 10
- Corn plant response rating (corn (Zea mays); [21]): 0
- Kochia plant response rating (kochia (Bassia scoparia) [1]): 0
- Plant response rating, Kochia (kochia (Bassia scoparia) [1]; 500 g ai/ha): 0
- Ragweed plant response rating [2]: 20
- Plant response rating, Ragweed ([2]; 500 g ai/ha): 60
- Plant response rating, Ragweed [3, 19]: 70
- Ragweed plant response rating [3, 21]: 80
- Ryegrass, Italian plant response rating [4]: 50
- Plant response rating, Ryegrass, Italian ([4]; 500 g ai/ha): 100
- Plant response rating, Pigweed [5, 19]: 0
- Pigweed plant response rating [5, 21]: 0
- Plant response rating, Wheat [6, 19]: 50
- Wheat plant response rating [6, 21]: 60
- Plant response rating, Blackgrass [7, 19]: 10
- Blackgrass plant response rating [7, 21]: 50
- Plant response rating, Kochia (kochia (Bassia scoparia) [8]; [19]): 0
- Kochia plant response rating (kochia (Bassia scoparia) [8]; [21]): 0
- Plant response rating, Barnyardgrass [9, 19]: 50
- Barnyardgrass plant response rating [9, 21]: 80
- Pigweed plant response rating [10]: 0
- Plant response rating, Pigweed ([10]; 500 g ai/ha): 0
- Foxtail, Giant plant response rating [11]: 10
- Plant response rating, Foxtail, Giant ([11]; 500 g ai/ha): 90
- Plant response rating, Foxtail, Giant [12, 19]: 40
- Foxtail, Giant plant response rating [12, 21]: 80
- Plant response rating, Ryegrass, Italian [13, 19]: 40
- Ryegrass, Italian plant response rating [13, 21]: 80
- Plant response rating, Galium [14, 19]: 30
- Galium plant response rating [14, 21]: 40
- Barnyardgrass plant response rating [15]: 50
- Plant response rating, Barnyardgrass ([15]; 500 g ai/ha): 90
